Assay results: patent publication US11534457B2, “Use of dextran sulfate” (priority 2017, dated 2022)

Legend:
[1] = test system: MBP expression in human Schwann cells; assay: Myelin basic protein (MBP) immunostaining; format: cell-based; conditions: 48 h
Method: (§1) Neurons were cultured as 40,000 cells per well and Schwann cells 3,000 cells per. Cells were treated after 24 hours. The number of cells per well depended on the growth phenotype, proliferative capacity, etc.
Schwann cells growth medium was prepared by adding 10% of fetal bovine serum (FBS, PAA) to high-glucose DMEM and pre-warmed to 37° C. Cells were thawed in a 37° C. water bath for no longer than 2 min. Cells were gently transferred to a tube containing 10 ml of medium and centrifuged at 200 RCF for 5 min. Pellet was resuspended in 5 ml of medium and cells were counted with the Cellometer. 3,000 cells per well were seeded in previously coated 96-well plates. Cells were incubated at 37° C. with 5% CO2. Cells were allowed to settle for 24 hours before drug treatment.
(§2) LMW-DS was prepared in the culture media of choice for each cell line and added to the respective wells in the doses 0.01 and 0.1 mg/ml. For cell survival assays cells were analyzed after 24 and 48 hours in eight identical wells/dose/time point. Differentiation and protein expression assay was analyzed after 48 hours, also in octuplicates.
Cells were fixated in the wells. […]
(§3) The Acumen cytometer allows the direct cytometric analysis of attached cells without prior detachment. […] The protein content of the cells can also be directly measured and expressed as either ‘total protein content’ or ‘mean protein content’.

[2] = test system: CASM3C system [coronary artery smooth muscle cells+(IL-1β, TNFα and IFNγ)]; assay: BioMAP CASM3C system; format: cell-based, Human
Description: In this study LMW-DS was characterized by profiling in the BioMAP® Diversity PLUS panel. The BioMAP® panel consists of human primary cell-based systems designed to model different aspects of the human body in an in vitro format. The 12 systems in the BioMAP® Diversity PLUS panel (Table 32) allow test agent characterization in an unbiased way across a broad set of systems modeling various human disease states. The BioMA®P systems are constructed with one or more primary cell types from healthy human donors, with stimuli, such as cytokines or growth factors, added to capture relevant signaling networks that naturally occur in human tissue or pathological conditions. […]
Systems are derived from either single cell types or co-culture systems. […] Test agents prepared in either DMSO (small molecules; final concentration 0.1%) or PBS (biologics) are added at the indicated concentrations 1-hr before stimulation, and remain in culture for 24-hrs or as otherwise indicated (48-hrs, MyoF system; 72-hrs, BT system (soluble readouts); 168-hrs, BT system (secreted IgG)). […] Soluble factors from supernatants are quantified using either HTRF® detection, bead-based multiplex immunoassay or capture ELISA. Overt adverse effects of test agents on cell proliferation and viability (cytotoxicity) are detected by sulforhodamine B (SRB) staining, for adherent cells, and alamarBlue® reduction for cells in suspension. […]

[3] = test system: βIII-tubulin expression in human motor neurons; assay: βIII-tubulin immunostaining (differentiation-related protein expression); format: cell-based; conditions: 48 h
Method: as §1
NeuroBlast was pre-warmed to 37° C. Cells were thawed in a 37° C. water bath for no longer than 2 min. 1 ml of media was gently added drop-wise. Cells were resuspended and transferred to a 15 ml tube containing 9 ml of medium. Cells were centrifuged at 200 relative centrifugal force (RCF) for 5 min. Pellet was resuspended in 5 ml of medium and cells were counted with the Cellometer. 40,000 cells per well were seeded in previously coated 96-well plates. Cells were incubated at 37° C. with 5% CO2. Cells were allowed to settle for 24 hours before drug treatment. […]
as §2, with “octuplicates. […]” for “octuplicates.”
as §3

## low molecular weight dextran sulfate [LMW-DS]
[1]; 0.01 and 0.1 mg/ml
  MBP expression: significantly increased
[1]
  size of MBP-positive cells vs control: larger
[2]; CASM3C system
  Decreased biomarker activity: VCAM-1, MIG
[2]; all tested concentrations
  key inflammation biomarkers including MIG, VCAM, IP-10 and ITAC: decreased over all tested concentrations
[3]; 0.01 and 0.1 mg/ml
  βIII-tubulin expression: significantly increased
[3]
  size of the majority of βIII-tubulin positive cells vs control cultures: smaller
